Here are results for 2 compounds from BindingDB's records for patent US12030880 (Chia Tai Tianqing Pharmaceutical Group, 2024).

Test [1] addresses T1, Bromodomain-containing protein 4 [44-168] (Human, UniProt O60885).
T1 construct: 44-168
Put plainly: In Vitro BRD4 (BD1) Enzymatic Activity Assay. The procedure: In the present application, IC50 values of the compounds in inhibiting BRD4 (BD1) enzyme binding reaction were determined by homogeneous time resolved fluorescence (HTRF). A compounds was serially diluted 5-fold with 100% DMSO starting from 0.2 mM (7 concentrations in total), and then 2 μL of the compound at each concentration was added to 48 μL of a reaction buffer (20 mM HEPES pH 7.5, 150 mM NaCl, 5 mM DTT, 0.005% Tween 20, and 100 μg/mL BSA) for dilution, and mixed well. 2.5 μL of the resulting mixture was added to a 384-well plate (OptiPlate-384, purchased from PerkinElmer), then 5 μL of GST-BRD4 (BD1, 44-168 aa) (final concentration: 1 nM) was added, and the resulting mixture was centrifuged, and fully mixed. 2.5 μL of a short peptide Biotin-AHA-SGRGK(Ac)GGK(Ac)GLGK(Ac)GGAK(Ac) RHRKV (final concentration: 100 nM) was then added to initiate the reaction (total reaction volume: 10 μL). […] After being incubated in the incubator for another 1 hour, the fluorescence values (excited at 320 nm, emitted light at 665 nm and 620 nm being detected, and the ratio of the two being the enzyme binding signal) were read on Envision (purchased from PerkinElmer).

In test [2] the target is T2, Bromodomain-containing protein 4 [349-460] (Homo sapiens, UniProt O60885).
T2 construct: 349-460
Put plainly: In Vitro BRD4 (BD2) Enzymatic Activity Assay. The protocol: In the present application, IC50 values of the compounds in inhibiting BRD4 (BD2) enzyme binding reaction were determined by homogeneous time resolved fluorescence (HTRF). A compound was serially diluted 5-fold with 100% DMSO starting from 1 mM (7 concentrations in total), and then 2 μL of the compound at each concentration was added to 18 μL of a reaction buffer (20 mM HEPES pH 7.5, 150 mM NaCl, 5 mM DTT, 0.005% Tween 20, and 100 μg/mL BSA) for dilution. After being mixed well, 2 μL of the compound at each concentration was added to 48 μL of the above reaction buffer for dilution, and mixed well (final concentration of the compound in DMSO: 0.1%). 2.5 μL of the resulting mixture was added to a 384-well plate (OptiPlate-384, purchased from PerkinElmer), then 5 μL of GST-BRD4 (BD2, 349-460 aa) (final concentration: 2 nM) was added, and the resulting mixture was centrifuged, and fully mixed. 2.5 μL of a peptide Biotin-AHA-SGRGK(Ac)GGK(Ac)GLGK(Ac)GGAK(Ac) RHRKV (final concentration: 200 nM) was then added to initiate the reaction (total reaction volume: 10 μL). […] After being incubated in the incubator for another 1 hour, the fluorescence values (excited at 320 nm, emitted light at 665 nm and 620 nm being detected, and the ratio of the two being the enzyme binding signal) were read on Envision (purchased from PerkinElmer).

Turning to `Cn1cc(-c2cc(N=S(C)(C)=O)ccc2Oc2ccc(C#N)cc2F)c2cc[nH]c2c1=O` [US12030880, Example 2], the IC50 in test [1] was determined as 1.4 nM; in test [2], 0.98 nM.

For the compound `CCNC(=O)c1cc2c(-c3cc(N=S(C)(C)=O)ccc3Oc3ccc(S(C)(=O)=O)cc3)cn(C)c(=O)c2[nH]1` [US12030880, Example 1], the IC50 in test [1] came out at 14.7 nM; in test [2], 0.51 nM.

The IC50 is the concentration needed to halve the response being measured.
